Experiments:
[1] = tested on: mTORC1 activity: phosphorylated 4E-BP1 Thr37/46 (p4E-BP1 Thr37/46) in PC3 cells; assay: mTOR target engagement assay, immunofluorescent cell-based, mTORC1 readout; conditions: Homo sapiens, PC-3, 1.5 h, rated class, 90 min treatment, read-out: P4EBP1 IC50
Description: The target engagement of mTOR kinase inhibitors was evaluated using an immunofluorescent cell-based assay. In this assay, inhibition of mTORC1 activity was measured by the reduction in the level of phosphorylated 4E-BP1Thr37/46 (p4E-BP1 Thr37/46), and inhibition of mTORC2 activity was measured by the reduction of phosphorylated AKTSer473 (pAKT S473).
PC3 cells (prostate tumor cell-line that contains a mutation in the tumor suppressor PTEN, that promotes the phosphorylation and activation of AKT and 4E-BP1) were used in the immunofluorescence assay. PC3 cells were seeded on 384 well plates (black clear bottom, Matrix #4332) overnight. PC3 cells were then treated with 40 μl of the serially diluted test compounds (in 5% fetal bovine serum, F12 medium containing 0.25% DMSO) for ninety minutes at 37° C. The test compound solution was removed, and the plates were washed gently two times with 25 μl phosphate buffered saline (PBS). The cells were fixed by adding 25 μl of Prefer reagent (from Anatech LTD, Cat#414, a glyoxal fixative for fixing proteins within a cell) for sixty minutes followed by three washes with PBS. 5% Goat serum in PBS/0.3% Triton was used to block non-specific binding (60 minutes).
The primary antibodies targeting pAKT S473 and p4E-BP1 Thr37/46 were diluted into PBS/0.3% Triton and incubated with the cells overnight at 4° C. The antibodies targeting pAKTS473 (Cat#4085, Cell signaling) and p4E-BP1 Thr37/46 (Cat#2855, Cell signaling) were used at a 1:100 dilution. Plates were washed three times with PBS/0.1% Tween 20 before adding the secondary antibody at a 1:200 dilution. (goat anti-rabbit containing a fluorescent label, Alexa Fluor 488, Cat#A11008, Invitrogen) in PBS/0.3% Triton for 60 minutes.
Finally, the plates were washed three times with PBS/0.1% Tween 20 and the fluorescent intensity was read using an Analyst HT from Molecular Devices. The fluorescent intensity values from the serially diluted compound treatment group were analyzed using the Xlfit 4 program ([…]) (Formula 205: Y=Bottom+(Top-Bottom)/(1+(IC50/X)^Hillslope) to generate the IC50 value. Where Top is the maximum signal without Compound (+DMSO only) and Bottom represents maximum inhibition. Y is the fluorescence at some compound concentration. The control used to determine the fluorescent intensities for 100% pAKT S473 or 100% phosphorylated p4E-BP1 Thr37/46 were measured from untreated wells that contained only DMSO, instead of test compound.

human mTOR enzyme = human mTOR enzyme (Homo sapiens, UniProt P42345); assay: HTRF mTOR enzyme (kinase) assay; assay type: biochemical; conditions: rated class; 5 μM ATP, 0.2 μM GST-S6K; read-out: hMTOR IC50
[2] = tested on: mTORC2 activity: phosphorylated AKT Ser473 (pAKT S473) in PC3 cells; assay: mTOR target engagement assay, immunofluorescent cell-based, mTORC2 readout; conditions: Homo sapiens, PC-3, 1.5 h, rated class, 90 min treatment
Summary of the method: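 Read-out is immunofluorescence intensity, normalized to DMSO-only wells and fitted to a sigmoidal Hill equation for IC50. The mTORC1 arm probes phospho-4E-BP1 Thr37/46 and the mTORC2 arm phospho-AKT Ser473.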

Sequence of human mTOR enzyme (P42345 1360-2549 limits assumed): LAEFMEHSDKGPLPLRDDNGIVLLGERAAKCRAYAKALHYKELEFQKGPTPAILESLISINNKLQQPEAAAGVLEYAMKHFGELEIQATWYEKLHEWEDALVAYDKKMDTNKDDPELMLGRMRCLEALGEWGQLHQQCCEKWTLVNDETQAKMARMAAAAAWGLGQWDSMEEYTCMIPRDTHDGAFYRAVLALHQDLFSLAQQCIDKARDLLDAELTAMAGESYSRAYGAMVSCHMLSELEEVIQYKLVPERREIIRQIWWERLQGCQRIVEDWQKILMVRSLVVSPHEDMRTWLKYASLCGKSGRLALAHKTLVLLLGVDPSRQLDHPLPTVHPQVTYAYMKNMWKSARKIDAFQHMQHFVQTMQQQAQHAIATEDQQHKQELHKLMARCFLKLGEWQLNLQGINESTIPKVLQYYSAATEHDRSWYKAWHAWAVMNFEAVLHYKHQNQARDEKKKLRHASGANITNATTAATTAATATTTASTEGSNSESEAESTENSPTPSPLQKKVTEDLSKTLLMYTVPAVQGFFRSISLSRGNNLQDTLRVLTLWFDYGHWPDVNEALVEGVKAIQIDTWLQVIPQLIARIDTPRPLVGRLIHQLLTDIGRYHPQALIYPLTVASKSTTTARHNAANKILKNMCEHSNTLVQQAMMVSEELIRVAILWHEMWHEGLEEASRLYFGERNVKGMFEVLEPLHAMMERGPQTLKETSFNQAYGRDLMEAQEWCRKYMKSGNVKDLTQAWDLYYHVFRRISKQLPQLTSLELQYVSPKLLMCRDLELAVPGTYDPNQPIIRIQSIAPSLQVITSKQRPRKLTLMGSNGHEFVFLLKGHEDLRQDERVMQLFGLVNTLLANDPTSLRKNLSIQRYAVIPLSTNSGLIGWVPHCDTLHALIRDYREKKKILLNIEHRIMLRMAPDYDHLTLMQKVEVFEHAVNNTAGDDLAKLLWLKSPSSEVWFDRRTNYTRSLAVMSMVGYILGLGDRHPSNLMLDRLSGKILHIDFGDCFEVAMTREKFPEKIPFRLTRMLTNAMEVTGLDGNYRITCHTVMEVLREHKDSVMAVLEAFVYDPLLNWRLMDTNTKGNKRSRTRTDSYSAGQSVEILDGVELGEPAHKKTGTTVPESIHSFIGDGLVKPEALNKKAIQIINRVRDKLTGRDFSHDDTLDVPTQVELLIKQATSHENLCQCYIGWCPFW

SMILES	IC50 [1]	IC50 (human mTOR enzyme)	IC50 [2]
Nc1c(Br)c([C@H]2CC[C@@](OCCN3CCOCC3)(C(=O)O)CC2)nc2c(-c3cnn(-c4ccccc4)c3)cnn12 [Compound 67, (1R,4R)-4-(7-amino-6-bromo-3-(1-phenyl-1H-pyrazol-4-yl)pyrazolo[1,5-a]pyrimidin-5-yl)-1-(2-morpholinoethoxy) cyclohexanecarboxylic acid]	100 to 1000 nM	1 to 100 nM	100 to 1000 nM
COCCO[C@]1(c2nnn[nH]2)CC[C@@H](c2nc3c(-c4ccc(-c5ccccc5)nc4)cnn3c(N)c2S(C)(=O)=O)CC1 [Compound 119]	2000 to 5000 nM	1 to 100 nM	1000 to 2000 nM
CC(=O)c1c(N)n2ncc(-c3ccc(-c4ccccc4)nc3)c2nc1[C@H]1CC[C@](C)(C(=O)O)CC1 [Compound 15, (1R,4R)-4-(6-acetyl-7-amino-3-(6-phenylpyridin-3-yl)pyrazolo[1,5-a]pyrimidin-5-yl)-1-methylcyclohexanecarboxylic acid]	100 to 1000 nM	1 to 100 nM	100 to 1000 nM
CC(=O)c1c(N)n2ncc(-c3ccc(-c4ccccc4)nc3)c2nc1[C@H]1CC[C@](O)(CO)CC1 [Compound 140, 1-(7-amino-5-((1S,4S)-4-hydroxy-4-(hydroxymethyl)cyclohexyl)-3-(6-phenylpyridin-3-yl)pyrazolo[1,5-a]pyrimidin-6-yl)ethanone]	100 to 1000 nM	1 to 100 nM	1 to 100 nM
COCCO[C@]1(C(=O)O)CC[C@@H](c2nc3c(-c4cnn(-c5ccccc5)c4)cnn3c(N)c2S(C)(=O)=O)CC1 [Compound 40, (1R,4R)-4-(7-amino-6-(methylsulfonyl)-3-(1-phenyl-1H-pyrazol-4-yl)pyrazolo[1,5-a]pyrimidin-5-yl)-1-(2-methoxyethoxy)cyclohexanecarboxylic acid]	100 to 1000 nM	1 to 100 nM	1 to 100 nM
CO[C@]1(C(=O)O)CC[C@@H](c2nc3c(-c4cnn(-c5ccccc5)c4)cnn3c(N)c2C(C)=O)CC1 [Compound 36, (1R,4R)-4-(6-acetyl-7-amino-3-(1-phenyl-1H-pyrazol-4-yl)pyrazolo[1,5-a]pyrimidin-5-yl)-1-methoxycyclohexane-carboxylic acid]	100 to 1000 nM	1 to 100 nM	1 to 100 nM
COCCO[C@]1(C(=O)c2nnc[nH]2)CC[C@@H](c2nc3c(-c4ccc(-c5ccccc5)nc4)cnn3c(N)c2S(C)(=O)=O)CC1 [Compound 125, ((1R,4R)-4-(7-amino-6-(methylsulfonyl)-3-(6-phenylpyridin-3-yl)pyrazolo[1,5-a]pyrimidin-5-yl)-1-(2-methoxyethoxy)cyclohexyl)(4H-1,2,4-triazol-3-yl)methanone]	1 to 100 nM	1 to 100 nM	1 to 100 nM
COCCO[C@]1(C(=O)NO)CC[C@@H](c2nc3c(-c4ccc(-c5ncc[nH]5)nc4)cnn3c(N)c2C(C)=O)CC1 [Compound 115, (1R,4R)-(3-(6-(1H-imidazol-2-yl)pyridin-3-yl)-6-acetyl-7-aminopyrazolo[1,5-a]pyrimidin-5-yl)-N-hydroxy-1-(2-methoxyethoxy)cyclohexane carboxamide]	1 to 100 nM	1 to 100 nM	1 to 100 nM
COCCO[C@]1(C(N)=O)CC[C@@H](c2nc3c(-c4ccc(-c5ncc[nH]5)nc4)cnn3c(N)c2S(C)(=O)=O)CC1 [Compound 116]	1 to 100 nM	1 to 100 nM	100 to 1000 nM
CO[C@]1(C(=O)O)CC[C@@H](c2nc3c(-c4ccc(-c5ccccc5)nc4)cnn3c(N)c2C(C)=O)CC1 [Compound 35, (1R,4R)-4-(6-acetyl-7-amino-3-(6-phenylpyridin-3-yl)pyrazolo[1,5-a]pyrimidin-5-yl)-1-methoxycyclohexane-carboxylic acid]	100 to 1000 nM	1 to 100 nM	1 to 100 nM
CO[C@]1(C(=O)O)CC[C@H](c2nc3c(-c4ccc(-c5ccccc5)nc4)cnn3c(N)c2C(C)=O)CC1 [Compound 34, (1S,4S)-4-(6-acetyl-7-amino-3-(6-phenylpyridin-3-yl)pyrazolo[1,5-a]pyrimidin-5-yl)-1-methoxycyclohexanecarboxylic acid]	100 to 1000 nM	1 to 100 nM	100 to 1000 nM
COCCO[C@]1(C(=O)n2ccc(=O)[nH]2)CC[C@@H](c2nc3c(-c4cnn(-c5ccccc5)c4)cnn3c(N)c2S(C)(=O)=O)CC1 [Compound 94, 1-((1R,4R)-4-(7-amino-6-(methylsulfonyl)-3-(1-phenyl-1H-pyrazol-4-yl)pyrazolo[1,5-a]pyrimidin-5-yl)-1-(2-methoxyethoxy)-cyclohexanecarbonyl)-1H-pyrazol-3(2H)-one]	100 to 1000 nM	1 to 100 nM	1 to 100 nM
COCCO[C@]1(C(=O)NO)CC[C@@H](c2nc3c(-c4cnn(-c5ccccc5)c4)cnn3c(N)c2S(C)(=O)=O)CC1 [Compound 88, (1R,4R)-4-(7-amino-6-(methylsulfonyl)-3-(1-phenyl-1H-pyrazol-4-yl)pyrazolo[1,5-a]pyrimidin-5-yl)-N-hydroxy-1-(2-methoxyethoxy)cyclohexanecarboxamide]	1 to 100 nM	1 to 100 nM	1 to 100 nM
COCCO[C@]1(C(=O)NO)CC[C@H](c2nc3c(-c4ccc(-c5ncc[nH]5)nc4)cnn3c(N)c2C(C)=O)CC1 [Compound 114]	100 to 1000 nM	1 to 100 nM	100 to 1000 nM
CC(=O)c1c(C2CCC(O)(CO)CC2)nc2c(-c3cnc(-c4ccccc4)nc3)cnn2c1N (stereo not drawn) [Compound 158, 1-(7-amino-5-(4-hydroxy-4-(hydroxymethyl)-cyclohexyl)-3-(2-phenylpyrimidin-5-yl)pyrazolo[1,5-a]pyrimidin-6-yl)ethanone]	100 to 1000 nM	1 to 100 nM	100 to 1000 nM
Nc1c(Br)c([C@H]2CC[C@](O)(CC(=O)O)CC2)nc2c(-c3cnn(-c4ccccc4)c3)cnn12 [Compound 78, 2-((1S,4S)-4-(7-amino-6-bromo-3-(1-phenyl-1H-pyrazol-4-yl)pyrazolo[1,5-a]pyrimidin-5-yl)-1-hydroxycyclohexyl)-acetic acid]	100 to 1000 nM	1 to 100 nM	100 to 1000 nM
COCCO[C@]1(C(=O)NOC)CC[C@@H](c2nc3c(-c4ccc(-c5ccccc5)nc4)cnn3c(N)c2C(C)=O)CC1 [Compound 103, (1R,4R)-4-(6-acetyl-7-amino-3-(6-phenylpyridin-3-yl)pyrazolo[1,5-a]pyrimidin-5-yl)-N-methoxy-1-(2-methoxyethoxy)-cyclohexane-carboxamide]	100 to 1000 nM	1 to 100 nM	100 to 1000 nM
COCCO[C@]1(C(=O)NOCCO)CC[C@@H](c2nc3c(-c4cnn(-c5ccccc5)c4)cnn3c(N)c2S(C)(=O)=O)CC1 [Compound 100]	1 to 100 nM	1 to 100 nM	1 to 100 nM
COCCO[C@]1(C(=O)O)CC[C@@H](c2nc3c(-c4cnn(-c5ccccc5)c4)cnn3c(N)c2C#N)CC1 [Compound 69, (1R,4R)-4-(7-amino-6-cyano-3-(1-phenyl-1H-pyrazol-4-yl)pyrazolo[1,5-a]pyrimidin-5-yl)-1-(2-methoxyethoxy)cyclohexanecarboxylic acid]	1 to 100 nM	1 to 100 nM	1 to 100 nM
COCCO[C@]1(c2nnn[nH]2)CC[C@@H](c2nc3c(-c4cnn(-c5ccccc5)c4)cnn3c(N)c2S(C)(=O)=O)CC1 [Compound 118, 5-((1R,4R)-4-(2-methoxyethoxy)-4-(1H-tetrazol-5-yl)cyclohexyl)-6-(methylsulfonyl)-3-(1-phenyl-1H-pyrazol-4-yl)pyrazolo[1,5-a]pyrimidin-7-amine]	100 to 1000 nM	1 to 100 nM	100 to 1000 nM
CO[C@]1(C(=O)O)CC[C@H](c2nc3c(-c4cnn(-c5ccccc5)c4)cnn3c(N)c2C(C)=O)CC1 [Compound 37, (1S,4S)-4-(6-acetyl-7-amino-3-(1-phenyl-1H-pyrazol-4-yl)pyrazolo[1,5-a]pyrimidin-5-yl)-1-methoxycyclohexane-carboxylic acid]	100 to 1000 nM	1 to 100 nM	1 to 100 nM

From US8883801B2, “Substituted pyrazolo[1,5-a]pyrimidines as mTOR inhibitors” (Merck Sharp & Dohme Corp., priority 2010, dated 2014)
